Values belong to the compound of their own block, whether it stands above or below them.
Tests used:
[1] = biological target: T1, Homeodomain-interacting protein kinase 4 (Homo sapiens) (UniProt Q8NE63); assay: Selectivity interaction (Kinase panel (Invitrogen)) EUB0000639a HIPK4; settings: at 200 nM
T1 sequence (whole entry): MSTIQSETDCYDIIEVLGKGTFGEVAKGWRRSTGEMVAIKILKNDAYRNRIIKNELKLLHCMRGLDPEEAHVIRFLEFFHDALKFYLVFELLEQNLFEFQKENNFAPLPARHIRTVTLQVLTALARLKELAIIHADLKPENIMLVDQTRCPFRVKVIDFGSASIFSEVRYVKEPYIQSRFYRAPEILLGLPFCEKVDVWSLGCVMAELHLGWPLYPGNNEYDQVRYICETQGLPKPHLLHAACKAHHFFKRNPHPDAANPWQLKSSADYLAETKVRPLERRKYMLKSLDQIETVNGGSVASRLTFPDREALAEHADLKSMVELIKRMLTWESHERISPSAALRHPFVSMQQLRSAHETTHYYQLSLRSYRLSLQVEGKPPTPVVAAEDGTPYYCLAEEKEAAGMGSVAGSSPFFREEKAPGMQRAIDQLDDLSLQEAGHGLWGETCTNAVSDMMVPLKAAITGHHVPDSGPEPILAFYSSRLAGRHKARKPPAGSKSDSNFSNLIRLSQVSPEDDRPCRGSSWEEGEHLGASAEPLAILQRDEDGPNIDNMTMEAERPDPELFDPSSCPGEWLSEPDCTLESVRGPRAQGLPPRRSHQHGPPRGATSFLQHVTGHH

[2] = biological target: T2, Tyrosine-protein kinase JAK3 (Homo sapiens) (UniProt P52333); assay: Selectivity interaction (KinomeScan (DiscoverX)) EUB0000045b JAK3
T2 sequence (whole entry): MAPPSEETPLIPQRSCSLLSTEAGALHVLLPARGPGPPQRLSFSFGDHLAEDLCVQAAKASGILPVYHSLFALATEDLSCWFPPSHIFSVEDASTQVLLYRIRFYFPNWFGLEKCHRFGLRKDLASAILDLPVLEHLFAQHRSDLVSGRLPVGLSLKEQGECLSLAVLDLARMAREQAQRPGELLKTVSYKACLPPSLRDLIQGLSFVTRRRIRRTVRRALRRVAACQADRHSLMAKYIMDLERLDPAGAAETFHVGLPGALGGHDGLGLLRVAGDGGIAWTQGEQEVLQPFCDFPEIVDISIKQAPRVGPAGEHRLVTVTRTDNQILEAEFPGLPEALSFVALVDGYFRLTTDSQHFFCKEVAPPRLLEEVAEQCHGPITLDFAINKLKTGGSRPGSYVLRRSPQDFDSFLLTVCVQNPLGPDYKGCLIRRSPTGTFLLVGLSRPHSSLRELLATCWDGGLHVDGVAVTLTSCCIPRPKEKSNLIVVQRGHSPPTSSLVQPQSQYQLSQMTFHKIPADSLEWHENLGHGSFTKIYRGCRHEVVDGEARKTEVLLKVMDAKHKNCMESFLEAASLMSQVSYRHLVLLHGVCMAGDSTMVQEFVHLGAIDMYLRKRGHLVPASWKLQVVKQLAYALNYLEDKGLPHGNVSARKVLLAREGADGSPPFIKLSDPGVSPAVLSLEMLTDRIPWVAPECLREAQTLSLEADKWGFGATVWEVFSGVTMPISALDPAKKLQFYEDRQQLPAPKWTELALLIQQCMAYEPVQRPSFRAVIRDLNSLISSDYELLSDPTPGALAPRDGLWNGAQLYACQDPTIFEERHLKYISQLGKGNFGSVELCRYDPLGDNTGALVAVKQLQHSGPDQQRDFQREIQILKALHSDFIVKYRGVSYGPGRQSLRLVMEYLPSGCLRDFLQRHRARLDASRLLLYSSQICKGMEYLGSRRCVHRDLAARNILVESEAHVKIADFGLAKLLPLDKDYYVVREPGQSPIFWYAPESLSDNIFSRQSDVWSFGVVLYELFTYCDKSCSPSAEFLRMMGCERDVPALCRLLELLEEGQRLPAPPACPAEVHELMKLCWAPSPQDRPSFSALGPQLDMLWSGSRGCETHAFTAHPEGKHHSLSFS

[3] = biological target: Mitogen-activated protein kinase 11 (Homo sapiens) (UniProt Q15759); assay: Selectivity interaction (Kinase panel (KiNativ target engagement assay in Jurkat cells)) EUB0001635a MAPK11; type: cell-based; settings: Selectivity number of off-targets 0.0, Selectivity number of targets 233.0, Source Knowledge https://www.sciencedirect.com/science/article/pii/S2451945619300674?via%3Dihub, at 1 µM
Sequence of Mitogen-activated protein kinase 11 (Homo sapiens) (Q15759 whole entry): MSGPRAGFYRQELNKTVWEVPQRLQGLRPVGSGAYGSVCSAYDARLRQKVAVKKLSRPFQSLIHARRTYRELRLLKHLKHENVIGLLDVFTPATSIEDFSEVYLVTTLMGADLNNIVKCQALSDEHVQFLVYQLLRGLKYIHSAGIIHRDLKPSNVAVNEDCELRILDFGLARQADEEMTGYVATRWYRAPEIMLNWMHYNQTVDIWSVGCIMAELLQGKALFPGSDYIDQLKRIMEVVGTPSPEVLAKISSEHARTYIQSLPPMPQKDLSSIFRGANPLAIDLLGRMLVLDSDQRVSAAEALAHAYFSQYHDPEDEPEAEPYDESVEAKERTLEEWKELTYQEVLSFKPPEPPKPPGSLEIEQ

% of inhibition [1]: 5.27%
SMILES: CC[C@@H]1[C@H](F)C(=O)N[C@@H]1COc1nccc2cc(C(N)=O)c(OC)cc12 [ZIMLOVISERTIB]

SMILES: C=CC(=O)Nc1cc(-n2c(=O)ccc3cnc4ccc(-c5ccc(NS(C)(=O)=O)cc5)cc4c32)ccc1C
% of control ([2]; at 1 µM): 6.6%
% of control ([2]; at 10 µM): 0.6%

SMILES: C=CC(=O)Nc1ccc(C(=O)Nc2[nH]nc3c2CN(C(=O)N[C@H](CN(C)C)c2ccccc2)C3(C)C)cc1
% of engagement [3]: -9.9%
